# Data: PMC6413339 (EBioMedicine, 2019)
# Read-outs that look alike come from different tables or passages of the source.
# Experiments:
# RSK1 = target: T1, RSK1 (Homo sapiens, UniProt Q15418); experiment: Cell-free kinase assay, dose-response; assay type: biochemical; details: ATP 100 μM
# T1 construct: purchased Invitrogen PR6812A
# Protocol: (§1) Cell-free kinase activity assays were performed at Reaction Biology Corporation. Briefly, kinases were incubated with substrates, 100 μM ATP and a 3-fold serial dilution of compounds starting at 1 μM. DMSO was used as control. […] Experiments were performed in duplicates. The concentrations of kinases and substrates used in the assays are indicated on Table S1. Kinase activity was quantified using the ADP-Glo™ Kinase Assay System (Promega, Madison, WI) following the manufacturer's recommendations.
# p70S6K = target: T2, p70S6K (Homo sapiens, UniProt P23443); experiment: Cell-free kinase assay, dose-response; assay type: biochemical; details: ATP 100 μM
# T2 construct: purchased Invitrogen PV3815
# Protocol: as §1
# p38 = target: T3, p38 (Homo sapiens, UniProt Q16539); experiment: Cell-free kinase assay, dose-response; assay type: biochemical; details: ATP 100 μM
# T3 construct: purchased Invitrogen PV3304
# Protocol: as §1
# ARAF = target: T4, ARAF (Homo sapiens, UniProt P10398); experiment: Cell-free kinase assay, dose-response; assay type: biochemical; details: ATP 100 μM; read-out: IC50 ARAF (A-Raf)
# T4 construct: purchased BPS 40010
# Protocol: as §1
# BRAF = target: T5, BRAF (Homo sapiens, UniProt P15056); experiment: Cell-free kinase assay, dose-response; assay type: biochemical; details: ATP 100 μM; read-out: IC50 BRAF (B-Raf)
# T5 construct: purchased BPS 40005
# Protocol: as §1
# RAF-1 = target: T6, RAF-1 (Homo sapiens, UniProt P04049, Y340D/Y341D); experiment: Cell-free kinase assay, dose-response; assay type: biochemical; details: ATP 100 μM; read-out: IC50 RAF-1 (c-Raf)
# T6 construct: purchased Invitrogen PV3805
# Protocol: as §1
# MEK1 = target: T7, MEK1 (Homo sapiens, UniProt Q02750); experiment: Cell-free kinase assay, dose-response; assay type: biochemical; details: up to 1 μM; ATP 100 μM
# T7 construct: purchased Invitrogen PV3303
# Protocol: as §1
# [1] = tested on: MOLM-14 (ITD, D835Y) cells; experiment: Antiproliferative activity (CellTitre-Blue, 72 h); assay type: cell-based, human; details: 72 h incubation, triplicates, read-out: IC50 (mean ±SD, nM) MOLM-14 (ITD, D835Y)
# Protocol: (§2) Cells were seeded into 96-well tissue culture-treated plates at 2.0 × 10^4 cells/mL for up to 24 h. DMSO stock solutions of compounds were serially diluted first in DMSO and subsequently into RPMI before being added to the cell cultures in triplicates, with 10 μM being the highest tested concentration. The plates were incubated for 72 h as above. The CellTitre-Blue assay (Promega, Madison WI) was then added to the cultures and incubated a further 4 h before the fluorescence measured following the manufacturers recommendations. The fluorescence data from compounds were normalized to that DMSO and the resulting data fitted to a non-linear regression equation to obtain IC50 using GraphPad Prism 5.0 Software (La Jolla, CA, USA).
# [2] = tested on: MOLM-14 (ITD, F691 L) cells; experiment: Antiproliferative activity (CellTitre-Blue, 72 h); assay type: cell-based, human; details: 72 h incubation, triplicates; listed as 7 (HSN431); read-out: IC50 (mean ±SD, nM) MOLM-14 (ITD, F691 L)
# Protocol: as §2
# MOLM-14 cells = experiment: Antiproliferative activity (CellTitre-Blue, 72 h); assay type: cell-based, human; details: Homo sapiens, MOLM-14; 72 h incubation, triplicates; read-out: IC50 (mean ±SD, nM) MOLM-14
# Protocol: as §2
# MV4–11 cells = experiment: Antiproliferative activity (CellTitre-Blue, 72 h); assay type: cell-based, human; details: Homo sapiens, MV4-11, 72 h, 72 h incubation, triplicates; read-out: IC50 (mean ±SD, nM) MV4–11
# Protocol: as §2
# [3] = tested on: AML cell lines (MV4–11, MOLM-14, MOLM-14 (ITD, D835Y), MOLM-14 (ITD, F691 L)); experiment: Annexin V apoptosis (flow cytometry); assay type: cell-based, human; details: 24 h and 48 h; dose- and time-dependent
# Protocol: Cells seeded into T-25 flasks at a density of 8.0 × 10^4 cells/mL and incubated overnight at 37 °C with 5% CO2. Each treatment was performed in triplicates, with three flasks per treatment each with enough volume for both assays at the applicable time points. Following the overnight incubation, cells were treated with either DMSO or different concentrations of HSN431 (as indicated) in triplicates, mixed well and incubated. At each time point (24 and 48 h), aliquots of 1.5 mL of cells were collected from each flask and placed into labeled FACS tubes (for Annexin V apoptosis) or labeled 15 cc conical tubes (for cell cycle) and centrifuged at 300 × g for 5 min. Cells were washed twice with 1× PBS.
# For Annexin V apoptosis, cell pellets were resuspended in 100 μL of 1× assay buffer and the binding of Annexin V and PI were measured by staining cells following the BD Pharmingen™ FITC Annexin V Apoptosis Detection Kit I (cat. no. 556547, BD Biosciences, San Jose, CA, USA) recommendations. Flow cytometry was performed on a a FACSCanto II flow cytometer (BD Bioscience, San Jose, CA, USA) and data analyzed using the FlowJo software (Flowjo, LLC, Ashland, OR).
# phospho-FLT3 = experiment: Western blot, MOLM-14 (ITD, D835Y) cells; assay type: cell-based, human
# Src = target: T8, Src (Homo sapiens, UniProt P12931); experiment: Cell-free kinase assay (Reaction Biology, ADP-Glo); assay type: biochemical
# T8 construct: purchased Invitrogen PR4336E
# Protocol: as §1
# FLT3-ITD = FLT3-ITD (Homo sapiens, UniProt P36888, ITD); experiment: Cell-free kinase assay, dose-response (Reaction Biology, ADP-Glo); assay type: biochemical
# Protocol: as §1
# T8 sequence (P12931 whole entry): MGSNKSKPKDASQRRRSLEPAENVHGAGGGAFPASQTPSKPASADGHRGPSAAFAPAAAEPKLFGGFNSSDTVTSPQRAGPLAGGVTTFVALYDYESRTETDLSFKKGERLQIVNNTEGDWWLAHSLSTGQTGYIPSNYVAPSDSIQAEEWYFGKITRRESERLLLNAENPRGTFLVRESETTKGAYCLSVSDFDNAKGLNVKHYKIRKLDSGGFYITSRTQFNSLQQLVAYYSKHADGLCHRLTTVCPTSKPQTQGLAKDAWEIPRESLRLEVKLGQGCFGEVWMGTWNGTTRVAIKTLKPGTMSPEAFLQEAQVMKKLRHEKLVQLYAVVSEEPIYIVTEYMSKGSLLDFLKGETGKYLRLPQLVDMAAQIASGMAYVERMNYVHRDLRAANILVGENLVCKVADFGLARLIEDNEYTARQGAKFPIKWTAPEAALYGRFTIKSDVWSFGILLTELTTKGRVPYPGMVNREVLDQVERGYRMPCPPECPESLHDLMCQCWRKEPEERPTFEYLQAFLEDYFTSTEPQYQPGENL
# T2 sequence (P23443 whole entry): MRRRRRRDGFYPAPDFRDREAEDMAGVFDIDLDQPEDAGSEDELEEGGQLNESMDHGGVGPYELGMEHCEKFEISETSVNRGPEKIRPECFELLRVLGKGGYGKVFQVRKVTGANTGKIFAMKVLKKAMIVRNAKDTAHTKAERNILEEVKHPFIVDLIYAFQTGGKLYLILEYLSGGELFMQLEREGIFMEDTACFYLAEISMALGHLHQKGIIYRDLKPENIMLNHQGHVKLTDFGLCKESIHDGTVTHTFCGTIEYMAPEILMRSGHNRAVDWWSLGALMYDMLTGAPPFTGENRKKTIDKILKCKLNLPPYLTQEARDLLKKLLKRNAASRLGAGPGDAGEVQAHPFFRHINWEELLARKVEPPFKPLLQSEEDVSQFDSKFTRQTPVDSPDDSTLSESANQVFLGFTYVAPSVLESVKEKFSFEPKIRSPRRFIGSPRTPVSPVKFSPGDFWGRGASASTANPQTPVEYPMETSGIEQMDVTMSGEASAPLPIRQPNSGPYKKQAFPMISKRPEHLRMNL
# T4 sequence (P10398 whole entry): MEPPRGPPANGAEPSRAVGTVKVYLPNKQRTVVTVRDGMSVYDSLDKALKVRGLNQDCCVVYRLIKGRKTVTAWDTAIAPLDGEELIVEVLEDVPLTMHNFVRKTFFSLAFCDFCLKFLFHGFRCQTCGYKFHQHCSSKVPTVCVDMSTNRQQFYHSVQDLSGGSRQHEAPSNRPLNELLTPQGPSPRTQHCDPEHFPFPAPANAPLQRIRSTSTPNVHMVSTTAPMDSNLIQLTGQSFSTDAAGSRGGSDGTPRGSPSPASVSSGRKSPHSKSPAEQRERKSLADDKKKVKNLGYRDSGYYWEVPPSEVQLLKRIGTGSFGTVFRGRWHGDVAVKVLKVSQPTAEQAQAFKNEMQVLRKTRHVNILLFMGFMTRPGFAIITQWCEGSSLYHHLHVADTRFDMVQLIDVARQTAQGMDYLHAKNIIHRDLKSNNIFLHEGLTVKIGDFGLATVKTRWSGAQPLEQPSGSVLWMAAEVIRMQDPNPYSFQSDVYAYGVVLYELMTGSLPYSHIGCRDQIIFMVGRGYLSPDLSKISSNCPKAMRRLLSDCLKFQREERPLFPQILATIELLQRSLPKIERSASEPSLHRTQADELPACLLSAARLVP
# FLT3-ITD, sequence (P36888 564-993, change not shown): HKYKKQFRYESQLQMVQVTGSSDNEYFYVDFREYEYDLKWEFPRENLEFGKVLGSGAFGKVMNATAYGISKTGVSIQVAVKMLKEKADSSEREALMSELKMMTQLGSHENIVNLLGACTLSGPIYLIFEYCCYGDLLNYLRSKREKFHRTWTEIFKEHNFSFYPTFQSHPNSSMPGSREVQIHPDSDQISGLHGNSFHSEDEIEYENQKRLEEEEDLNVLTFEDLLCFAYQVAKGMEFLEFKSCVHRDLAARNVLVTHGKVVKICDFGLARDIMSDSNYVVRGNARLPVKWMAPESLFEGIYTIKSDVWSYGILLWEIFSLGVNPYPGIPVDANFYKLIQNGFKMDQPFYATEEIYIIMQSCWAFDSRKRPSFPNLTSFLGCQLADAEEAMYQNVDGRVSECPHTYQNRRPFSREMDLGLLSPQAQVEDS
# T6 sequence (P04049 306-648 Y340D/Y341D limits assumed): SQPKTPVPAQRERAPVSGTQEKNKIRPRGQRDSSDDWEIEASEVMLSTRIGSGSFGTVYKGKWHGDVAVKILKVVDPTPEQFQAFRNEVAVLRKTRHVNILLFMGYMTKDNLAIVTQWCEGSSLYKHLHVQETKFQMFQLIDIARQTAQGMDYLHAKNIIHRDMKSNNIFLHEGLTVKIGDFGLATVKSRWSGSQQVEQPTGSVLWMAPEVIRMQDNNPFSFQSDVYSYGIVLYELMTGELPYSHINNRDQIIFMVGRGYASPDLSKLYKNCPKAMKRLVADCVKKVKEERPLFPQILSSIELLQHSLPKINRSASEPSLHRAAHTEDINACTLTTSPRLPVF
# T7 sequence (Q02750 whole entry): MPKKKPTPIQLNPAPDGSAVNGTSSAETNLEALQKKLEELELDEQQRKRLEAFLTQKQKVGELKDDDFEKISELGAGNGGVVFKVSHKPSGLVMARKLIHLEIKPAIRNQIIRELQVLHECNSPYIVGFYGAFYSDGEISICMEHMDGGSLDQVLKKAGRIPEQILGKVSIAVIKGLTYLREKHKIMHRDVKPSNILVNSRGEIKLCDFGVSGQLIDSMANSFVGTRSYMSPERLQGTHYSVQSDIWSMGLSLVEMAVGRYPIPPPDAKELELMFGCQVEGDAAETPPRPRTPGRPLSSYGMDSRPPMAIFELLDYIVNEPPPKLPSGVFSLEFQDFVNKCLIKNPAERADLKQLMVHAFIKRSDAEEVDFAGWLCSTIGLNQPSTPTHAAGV
# T3 sequence (Q16539 whole entry): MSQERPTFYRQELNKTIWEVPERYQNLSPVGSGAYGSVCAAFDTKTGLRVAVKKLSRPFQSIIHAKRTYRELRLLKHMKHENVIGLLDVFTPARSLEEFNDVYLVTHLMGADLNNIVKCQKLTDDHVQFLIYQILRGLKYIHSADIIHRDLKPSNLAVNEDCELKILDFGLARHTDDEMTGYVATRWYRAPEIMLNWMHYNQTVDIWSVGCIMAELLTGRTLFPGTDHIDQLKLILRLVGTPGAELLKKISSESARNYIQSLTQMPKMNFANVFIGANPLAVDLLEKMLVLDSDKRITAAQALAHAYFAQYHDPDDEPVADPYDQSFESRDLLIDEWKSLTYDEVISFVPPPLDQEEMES
# T1 sequence (Q15418 whole entry): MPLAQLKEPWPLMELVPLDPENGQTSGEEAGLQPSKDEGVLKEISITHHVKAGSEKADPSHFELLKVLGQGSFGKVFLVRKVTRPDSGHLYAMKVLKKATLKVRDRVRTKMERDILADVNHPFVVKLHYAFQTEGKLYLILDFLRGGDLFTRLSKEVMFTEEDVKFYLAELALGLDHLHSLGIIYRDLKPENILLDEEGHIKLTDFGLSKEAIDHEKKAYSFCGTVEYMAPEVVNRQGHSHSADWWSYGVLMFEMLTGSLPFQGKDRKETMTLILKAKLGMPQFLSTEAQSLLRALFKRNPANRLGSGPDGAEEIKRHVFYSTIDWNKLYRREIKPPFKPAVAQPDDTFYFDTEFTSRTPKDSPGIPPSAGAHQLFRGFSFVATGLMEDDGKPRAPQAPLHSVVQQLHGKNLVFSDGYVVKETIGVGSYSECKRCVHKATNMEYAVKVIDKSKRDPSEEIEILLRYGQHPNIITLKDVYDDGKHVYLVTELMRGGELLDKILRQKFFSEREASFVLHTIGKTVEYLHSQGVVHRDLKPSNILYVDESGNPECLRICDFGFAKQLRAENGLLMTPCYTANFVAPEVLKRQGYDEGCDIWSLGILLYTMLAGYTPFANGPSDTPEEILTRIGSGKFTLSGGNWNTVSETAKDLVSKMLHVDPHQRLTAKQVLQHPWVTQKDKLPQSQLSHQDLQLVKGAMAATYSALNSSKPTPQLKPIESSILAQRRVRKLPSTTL
# T5 sequence (P15056 whole entry): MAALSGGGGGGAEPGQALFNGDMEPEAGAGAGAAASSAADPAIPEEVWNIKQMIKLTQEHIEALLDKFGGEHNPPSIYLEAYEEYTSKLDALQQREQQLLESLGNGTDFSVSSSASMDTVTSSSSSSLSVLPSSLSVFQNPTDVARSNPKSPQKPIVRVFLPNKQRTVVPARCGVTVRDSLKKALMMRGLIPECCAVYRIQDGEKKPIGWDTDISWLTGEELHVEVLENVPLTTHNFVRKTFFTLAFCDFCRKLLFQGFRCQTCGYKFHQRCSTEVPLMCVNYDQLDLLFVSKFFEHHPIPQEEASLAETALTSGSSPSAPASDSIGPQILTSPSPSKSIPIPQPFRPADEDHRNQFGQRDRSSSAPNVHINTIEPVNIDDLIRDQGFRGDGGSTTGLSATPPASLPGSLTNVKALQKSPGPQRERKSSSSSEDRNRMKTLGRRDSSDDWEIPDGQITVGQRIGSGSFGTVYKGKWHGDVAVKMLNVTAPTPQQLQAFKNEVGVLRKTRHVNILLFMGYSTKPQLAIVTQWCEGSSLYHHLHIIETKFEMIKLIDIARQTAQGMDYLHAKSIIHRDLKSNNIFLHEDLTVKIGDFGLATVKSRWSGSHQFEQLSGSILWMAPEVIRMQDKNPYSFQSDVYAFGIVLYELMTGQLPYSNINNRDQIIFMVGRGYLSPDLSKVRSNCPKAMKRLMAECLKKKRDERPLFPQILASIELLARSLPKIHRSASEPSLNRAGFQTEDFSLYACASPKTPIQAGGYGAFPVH
smiles,measurement,setting,value
Cc1ncc(C(=O)Nc2ccc(CN3CCN(C)CC3)c(C(F)(F)F)c2)cc1C#Cc1c(N)ncc2ccc(F)cc12 [Compound 7],IC50,RSK1,1.48 µM
same,IC50,p70S6K,0.0447 µM
same,IC50,p38,0.0462 µM
same,IC50,ARAF,0.0276 µM
same,IC50,BRAF,0.0263 µM
same,IC50,RAF-1,0.0128 µM
same,inhibition of MEK1 kinase activity,MEK1,"but not the downstream effectors MEK1, ERK1 and RSK1"
same,IC50,[1]; listed as 7 (HSN431),16.6 ± 5.8 nM
same,IC50,"[1]; Homo sapiens, MOLM-14, 72 h",≤ 15 nM
same,IC50,[2],3.3 ± 0.3 nM
same,IC50,MOLM-14 cells,0.5 ± 0.01 nM
same,IC50,MV4–11 cells,0.5 ± 0.01 nM
same,total apoptosis,[3],induced apoptosis
same,phosphorylation of FLT3,phospho-FLT3,Inhibition
same,IC50,"Src; Src 0.6 nM, ATP 100 μM, read-out: IC50 against Src",0.0126 µM
same,inhibition at 0.5 µM,"Src; inhibitor 500 nM, 100 μM ATP, average of duplicate",98%
same,IC50,FLT3-ITD,0.0125 µM
